Measurements from PMC9396645 (Frontiers in Chemistry, 2022).
Read-outs that look alike come from different tables or passages of the source.

Assays:
[1] = system: C4-2 cells; experiment: Internalization efficiency / specific cell uptake in C4-2 cells; type: cell-based, human
Protocol: The specific internalization ratio was determinated in 24-well plates. The plates were previously coated with 0.1% poly-L-lysine in PBS for 20 min and washed with PBS once. C4-2 cells (10^5 cells per analysis) were added to each well and equilibrated overnight. The cells were incubated for 45 min with 250 µL of a 30 nM solution of the ^68Ga-labeled compounds either in a water bath at 37°C or on ice. The PSMA-receptor-blocking agent 2-(phosphonomethyl)pentanedioic acid (2-PMPA; 500 μM; Axxora) was used to verify the specificity of the cellular uptake of the novel compounds. The cells were washed thrice (using 1 ml of ice-cold PBS), followed by an incubation with 0.5 ml of a glycine solution (50 mM in HCl at a pH of 2.8) for 5 min, washed once with 1 ml of ice-cold PBS, and finally lysed with 0.5 ml of 0.3 M NaOH. The lysate was collected, and the radioactivity was measured in a gamma-counter. Triplicate measurements were performed for all experiments.

[2] = system: C4-2 tumor bearing BALB/c nu/nu mice; experiment: Small-animal PET imaging in C4-2 tumor bearing mice; type: in vivo, mouse; conditions: mean SUV from PET, 2 h p.i.
Excerpt: Athymic male nude mice (BALB/c nu/nu) were purchased from Charles River at 4‒5 weeks of age (19–23 g). The mice were kept under pathogen-free conditions for 1 week prior to the study. The mice had free access to water and food and were housed with a 12-h/12-h light/dark cycle. The xenografts required for positron emission tomography (PET) imaging and biodistribution studies were obtained by inoculation of 5 × 10^7 C4-2 cells in 50% Matrigel in Opti-MEM I (1 ×) medium. For this purpose, the mice were anesthetized with 2% sevoflurane, and inoculation was performed subcutaneously on the right trunk. When the size of the tumor was approximately 1 cm^3, the studies were performed.
For small-animal PET imaging, the different ^68Ga-labeled PSMA ligands (0.5 nmol, 20 MBq in approximately 100 µL 0.9% saline) were injected into C4-2 tumor bearing mice. The dynamic PET was recorded in a small animal PET scanner (Siemens Inveon D-PET). The standardized uptake values (SUVs) were obtained from conventional (non-dynamic) PET images. The formula for the SUV was SUV=activity in ROI (Bq/ml) × animal weight (g)/injected dose(Bq)
Manual delineation of the respective appropriate whole organ (heart, kidneys, bladder, tumor, with an approximate volume of 100–500 µL) yielded the volumes of interest (VOIs). For this purpose, whole organs or parts of the organ/tissue (liver and muscle) were used. The images were reconstructed based on the procedure: OSEM 3D/SP MAP with 16 subsets, two iterations, and an image x-y size: 256, image z size: 161. The data were not modified with a post-processing filter. Analysis of the images and time-activity curves (TACs) was conducted on the Inveon™ Acquisition Workplace (IAW) from Siemens IRW 4.1. […] […] The mean SUVs were plotted over time in order to compare the different radiotracers.

[3] = system: prostate cancer patients; set-up: method as in earlier work; conditions: patients PET/CT, ref Afshar-Oromieh et al. (2015a) and Afshar-Oromieh et al. (2015b), cited from earlier work
[4] = ^68Ga-labeled compounds 30 nM, 45 min, 37°C, specificity by 2-PMPA 500 μM, mean ± SD (n = 3)

O=C(O)CC[C@H](NC(=O)N[C@@H](CCCCNC(=O)[C@H](Cc1ccc2ccccc2c1)NC(=O)[C@H]1CC[C@H](CNC(=O)CN2CCN(CC(=O)O)CCN(CC(=O)O)CCN(CC(=O)O)CC2)CC1)C(=O)O)C(=O)O [PSMA-617, reference compound]
specific internalization in C4-2 cells ([1]; Table 2): 15.6 % ID/10^6 cells | Specific cell surface [1, 4]: 45.18 ± 3.61 %IA/10^6cells | Specific lysate (internalization) [1, 4]: 15.55 ± 3.07 %IA/10^6 cells

O=C([O-])CN1CCN(CC(=O)[O-])CCN(C(CCC(=O)NCc2ccc(NC(=S)NCC3CCC(C(=O)NC(Cc4ccc5ccccc5c4)C(=O)NCCCCC(NC(=O)NC(CCC(=O)O)C(=O)O)C(=O)O)CC3)cc2)C(=O)O)CCN(CC(=O)[O-])CC1.[68Ga+3] (stereo not shown) [^68Ga-CA029]
Specific lysate (internalization) [1, 4]: 44.3 ± 3.9 %IA/10^6 cells | tumor-to-kidney ratio [2]: 0.52

O=C([O-])CN1CCN(CC(=O)[O-])CCN(CC(=O)NCC2CCC(C(=O)NC(Cc3ccc4ccccc4c3)C(=O)NCCCCC(NC(=O)NC(CCC(=O)O)C(=O)O)C(=O)O)CC2)CCN(CC(=O)[O-])CC1.[68Ga+3] (stereo not shown) [^68Ga-PSMA-617]
Specific lysate (internalization) [1, 4]: 15.5 ± 3.1 %IA/10^6 cells | SUV mean Blood pool, mediastinal ([3]; 1 h p.i.): 2.5 | SUV mean Bone metastasis ([3]; 1 h p.i.): 9.4 | SUV mean Colon ([3]; 1 h p.i.): 3.5 | SUV mean Gluteal muscle ([3]; 1 h p.i.): 0.7 | SUV mean Kidneys ([3]; 1 h p.i.): 15.6 | SUV mean Lacrimal gland ([3]; 1 h p.i.): 4.9 | SUV mean Liver ([3]; 1 h p.i.): 3.3 | SUV mean Lymph node ([3]; 1 h p.i.): 7.1 | SUV mean Nasal mucosa ([3]; 1 h p.i.): 2.9 | SUV mean Parotid gland ([3]; 1 h p.i.): 10.4 | SUV mean Proximal small intestine ([3]; 1 h p.i.): 4.7 | SUV mean Spleen ([3]; 1 h p.i.): 4.3 | SUV mean Sublingual gland ([3]; 1 h p.i.): 4.6 | SUV mean Submandibular gland ([3]; 1 h p.i.): 10 | SUV mean Blood pool, mediastinal ([3]; 3 h p.i.): 2.4 | SUV mean Bone metastasis ([3]; 3 h p.i.): 6.3 | SUV mean Colon ([3]; 3 h p.i.): 4.0 | SUV mean Gluteal muscle ([3]; 3 h p.i.): 0.7 | SUV mean Kidneys ([3]; 3 h p.i.): 17.0 | SUV mean Lacrimal gland ([3]; 3 h p.i.): 5.9 | SUV mean Liver ([3]; 3 h p.i.): 2.7 | SUV mean Lymph node ([3]; 3 h p.i.): 13.5 | SUV mean Nasal mucosa ([3]; 3 h p.i.): 3.4 | SUV mean Parotid gland ([3]; 3 h p.i.): 13.1 | SUV mean Proximal small intestine ([3]; 3 h p.i.): 5.5 | SUV mean Spleen ([3]; 3 h p.i.): 3.5 | SUV mean Sublingual gland ([3]; 3 h p.i.): 4.0 | SUV mean Submandibular gland ([3]; 3 h p.i.): 12.4
